Reference: patent US20160046616A1, “NRF2 SMALL MOLECULE INHIBITORS FOR CANCER THERAPY” (THE JOHNS HOPKINS UNIVERSITY, priority 2013, published 2016)
Like-named read-outs stand apart in the source and are kept apart here.

Assays:
[1] = test system: A549 NRF2-ARE-Fluc stable cell line; test: A549 Nrf2 assay: NRF2-ARE firefly luciferase reporter gene assay; format: cell-based; conditions: read-out: Potency of inhibition, A549
Description: A549, the parental cell line, is a non-small-cell lung cancer (NSCLC) cell line with loss-of-function (LOF) Keap1 activity, thus NRF2 transcription factor constitutively translocates into the nucleus to activate the expression of downstream target genes of NRF2. A firefly luciferase reporter (Fluc) construct driven by a minimal promoter of NRF2-specific anti-oxidant responsive element (ARE) is stably expressed in the A549 cells. Compounds that reduce the translocation of NRF2 into the nucleus or prevent the interaction between NRF2 and ARE will lead to a decrease in luciferase activity.
The final concentration of DMSO was maintained at 0.46%. Control compounds Budesonide and Staurosporine were both added at a concentration of 2 mM and Budesonide also was added as a 1:10 titration, starting at 200 μM, to achieve dose-response. After an 18-24 hour incubation at 37° C., 95% humidity, and 5% CO2, 1 μL of 5× CellTiter-Fluor non-lytic cell viability assay reagent (Promega, Madison, Wis.) was added into the each well of the plates. The plates were then incubated for 30 minutes at room temperature before they were read on a ViewLux plate imager (Perkin Elmer, Waltham, Mass.) using an excitation wavelength of 405 nm and an emission wavelength of 525 nm.
A cell based reporter assay approach was used for the identification of agents that could inhibit Nrf2 mediated gene expression (FIG. 1). A549-ARE-luciferase cells express the luciferase gene driven by a minimal promoter and an enhancer element containing an NRF2 binding site (Antioxidant Response Element, ARE).
(§1) Representative compounds were assayed to assess the potency of inhibition in an A549 NRF2-ARE-Fluc stable cell line (A549 Nrf2 assay), in an H838 NRF2-ARE-Fluc stable cell line (H838 Nrf2 assay), and in an H1437 NRF2-ARE-Fluc stable cell line (H1437 Nrf2 assay) (see Table 3).

[2] = test system: H1437 NRF2-ARE-Fluc stable cell line; test: H1437 Nrf2 assay: NRF2-ARE firefly luciferase reporter gene assay; format: cell-based; conditions: read-out: Potency of inhibition, H1437
Description: H1437 is another NSCLC cell line with LOF Keap1 activity and constitutive translocation of NRF2 into the nucleus. A firefly luciferase reporter construct driven by a minimal promoter of NRF2-specific ARE is stably expressed in the H1437 cells. This cell line was used as a confirmation assay to make sure hits identified from primary screening and that passed counterscreen assays worked in different cell types with a constitutively active NRF2 pathway (deficiency in Keap1).
This assay was very similar to the primary assay except that the cell line was changed. […] The final concentration of DMSO was maintained at 0.46%. Control compounds Budesonide and Staurosporine were both added at a concentration of 2 mM and Budesonide was also added as a 1:10 titration, starting at 200 μM, to achieve dose-response. After an 18-24 hour incubation at 37° C., 95% humidity, and 5% CO2, 1 μL of 5× CellTiter-Fluor non-lytic cell viability assay reagent (Promega, Madison Wis.) was added into the each well of the plates. The plates were then incubated for 30 minutes at room temperature before they were read on a ViewLux plate imager (Perkin Elmer, Waltham Mass.) using an excitation wavelength of 405 nm and an emission wavelength of 525 nm.
as §1

[3] = Homo sapiens, NCI-H1437, H1437 NRF2-ARE-Fluc stable cell line
[4] = H1437 NRF2-ARE-Fluc stable cell line

IC50 ([1]; Homo sapiens) [µM] | IC50 [2, 3] [µM] | IC50 [2, 4] [µM] | IC50 [1] [µM] | Structure (SMILES)
5 to 25 | > 25 | – | – | Cc1ccccc1C(=O)N1CCc2cc(Br)ccc21 [Compound 107, (5-bromoindolin-1-yl)(o-tolyl)methanone]
> 25 | > 25 | – | – | O=C(CCCc1ccccc1)Nc1ncc(Cc2ccc(C(F)(F)F)cc2)s1 [Compound 108]
5 to 25 | 5 to 25 | – | – | Cc1ccccc1C(=O)N1CCc2cc(-c3nc(NS(=O)(=O)Cc4ccccc4)sc3C)ccc21 [Compound 109]
< 5 | 5 to 25 | – | – | O=C(Nc1ncc(Cc2ccc(C(F)(F)F)cc2)s1)c1ccn(-c2ccccc2)n1 [Compound 110]
> 25 | > 25 | – | – | O=C(Nc1nc2cc(C(F)(F)F)ccc2s1)c1ccc(-c2cccc([N+](=O)[O-])c2)o1 [Compound 111]
< 5 | < 5 | – | – | COc1ccc(CC(=O)Nc2nc(-c3ccc4c(c3)CCN4C(=O)c3ccccc3C)c(C)s2)cn1 [Compound 112]
< 5 | > 25 | – | – | CCc1ccccc1C(=O)N1CCc2cc(-c3nc(NC(=O)Cc4ccc5c(c4)OCO5)sc3C)ccc21 [Compound 113]
< 5 | > 25 | – | – | Cc1sc(NC(=O)Cc2ccc3c(c2)OCO3)nc1-c1ccc2c(c1)CCN2C(=O)c1ccccc1OC(F)(F)F [Compound 114]
< 5 | < 5 | – | – | Cc1sc(NC(=O)Cc2ccc3c(c2)OCO3)nc1-c1ccc2c(c1)CCN2C(=O)c1ccccc1F [Compound 115]
< 5 | > 25 | – | – | Cc1sc(NC(=O)Cc2ccc3c(c2)OCO3)nc1-c1ccc2c(c1)CCN2C(=O)c1ccccc1Cl [Compound 116]
< 5 | > 25 | – | – | O=C(Nc1ncc(Cc2ccc(C(F)(F)F)cc2)s1)c1ccn(-c2cccc([N+](=O)[O-])c2)n1 [Compound 117]
5 to 25 | > 25 | – | – | O=C(Nc1ncc(Cc2ccc(C(F)(F)F)cc2)s1)c1c[nH]c(-c2ccccc2)n1 [Compound 118]
< 5 | > 25 | – | – | COc1ccccc1C(=O)N1CCc2cc(-c3nc(NC(=O)Cc4ccc5c(c4)OCO5)sc3C)ccc21 [Compound 120]
< 5 | > 25 | – | – | Cc1sc(NC(=O)Cc2ccc3c(c2)OCO3)nc1-c1ccc2c(c1)CCN2C(=O)c1ccccc1C(F)(F)F [Compound 121]
< 5 | < 5 | – | – | Cc1ccccc1S(=O)(=O)N1CCc2cc(-c3nc(NC(=O)Cc4ccccc4F)sc3C)ccc21 [Compound 122]
< 5 | > 25 | – | – | Cc1ccccc1S(=O)(=O)N1CCc2cc(-c3nc(NC(=O)Cc4ccccc4Cl)sc3C)ccc21 [Compound 123]
< 5 | – | < 5 | – | Cc1ccccc1S(=O)(=O)N1CCc2cc(-c3nc(NC(=O)Cc4cccc(F)c4)sc3C)ccc21 [Compound 124]
< 5 | 5 to 25 | – | – | Cc1ccccc1S(=O)(=O)N1CCc2cc(-c3nc(NC(=O)Cc4cccc(Cl)c4)sc3C)ccc21 [Compound 125]
– | – | > 25 | < 5 | Cc1ccccc1S(=O)(=O)N1CCc2cc(-c3nc(NC(=O)Cc4cccc(F)c4)sc3C)ccc21 [Compound 126]
5 to 25 | 5 to 25 | – | – | Cc1ccccc1S(=O)(=O)N1CCc2cc(-c3nc(NC(=O)Cc4ccccn4)sc3C)ccc21 [Compound 127]
< 5 | < 5 | – | – | Cc1ccccc1CC(=O)Nc1nc(-c2ccc3c(c2)CCN3S(=O)(=O)c2ccccc2C)c(C)s1 [Compound 128]
< 5 | > 25 | – | – | Cc1ccccc1S(=O)(=O)N1CCc2cc(-c3nc(NC(=O)Cc4ccccc4C(F)(F)F)sc3C)ccc21 [Compound 129]
< 5 | < 5 | – | – | Cc1ccccc1S(=O)(=O)N1CCc2cc(-c3nc(NC(=O)Cc4cccnc4)sc3C)ccc21 [Compound 130]
5 to 25 | 5 to 25 | – | – | Cc1cccc(CC(=O)Nc2nc(-c3ccc4c(c3)CCN4S(=O)(=O)c3ccccc3C)c(C)s2)c1 [Compound 131]

IC50 ([1]; Homo sapiens) [µM] | IC50 [2, 3] [µM] | IC50 [2, 4] [µM] | IC50 [1] [µM] | Structure (SMILES)
5 to 25 | 5 to 25 | – | – | Cc1ccccc1S(=O)(=O)N1CCc2cc(-c3nc(NC(=O)Cc4cccc(C(F)(F)F)c4)sc3C)ccc21 [Compound 132]
< 5 | > 25 | – | – | Cc1ccc(CC(=O)Nc2nc(-c3ccc4c(c3)CCN4S(=O)(=O)c3ccccc3C)c(C)s2)cc1 [Compound 133]
< 5 | > 25 | – | – | Cc1ccccc1S(=O)(=O)N1CCc2cc(-c3nc(NC(=O)Cc4ccc(C(F)(F)F)cc4)sc3C)ccc21 [Compound 134]
< 5 | 5 to 25 | – | – | Cc1ccccc1S(=O)(=O)N1CCc2cc(-c3nc(NC(=O)Cc4ccc(Cl)cc4)sc3C)ccc21 [Compound 135]
< 5 | < 5 | – | – | Cc1ccccc1S(=O)(=O)N1CCc2cc(-c3nc(NC(=O)Cc4ccncc4)sc3C)ccc21 [Compound 136]
< 5 | > 25 | – | – | O=C(Nc1cccc(Nc2ccccc2)c1)c1ccc(-c2cccc([N+](=O)[O-])c2)o1 [Compound 137]
< 5 | > 25 | – | – | Cc1sc(NC(=O)Cc2ccc3c(c2)OCO3)nc1-c1ccc2c(c1)CCN2C(=O)c1ccccc1C(C)C [Compound 138]
5 to 25 | < 5 | – | – | Cc1ncccc1C(=O)N1CCc2cc(-c3nc(NC(=O)Cc4ccc5c(c4)OCO5)sc3C)ccc21 [Compound 139]
< 5 | < 5 | – | – | Cc1ccncc1C(=O)N1CCc2cc(-c3nc(NC(=O)Cc4ccc5c(c4)OCO5)sc3C)ccc21 [Compound 140]
< 5 | > 25 | – | – | Cc1cccnc1C(=O)N1CCc2cc(-c3nc(NC(=O)Cc4ccc5c(c4)OCO5)sc3C)ccc21 [Compound 141]
5 to 25 | > 25 | – | – | O=C(Nc1cccc(Cc2ccccc2)n1)c1ccc(-c2cccc([N+](=O)[O-])c2)o1 [Compound 142]
< 5 | > 25 | – | – | O=C(Nc1cc(Cc2ccccc2)ccn1)c1ccc(-c2cccc([N+](=O)[O-])c2)o1 [Compound 150]
> 25 | > 25 | – | – | O=C(Nc1ncc(Cc2ccc(C(F)(F)F)cc2)s1)c1ncc(-c2ccccc2)[nH]1 [Compound 151]
< 5 | < 5 | – | – | Cc1nc(C(=O)N2CCc3cc(-c4nc(NC(=O)Cc5ccc6c(c5)OCO6)sc4C)ccc32)c(C)o1 [Compound 157]
< 5 | > 25 | – | – | Cc1sc(NC(=O)Cc2ccc3c(c2)OCO3)nc1-c1ccc2c(c1)CCN2C(=O)c1cnoc1C(C)C [Compound 158]
< 5 | < 5 | – | – | Cc1occc1C(=O)N1CCc2cc(-c3nc(NC(=O)Cc4ccc5c(c4)OCO5)sc3C)ccc21 [Compound 159]
> 25 | > 25 | – | – | Cc1onc(-c2ccccc2)c1C(=O)N1CCc2cc(-c3nc(NC(=O)Cc4ccc5c(c4)OCO5)sc3C)ccc21 [Compound 160]
< 5 | < 5 | – | – | Cc1sc(NC(=O)Cc2ccc3c(c2)OCO3)nc1-c1ccc2c(c1)CCN2C(=O)c1cncn1C [Compound 161]
< 5 | < 5 | – | – | CC1=C(C(=O)N2CCc3cc(-c4nc(NC(=O)Cc5ccc6c(c5)OCO6)sc4C)ccc32)OCCO1 [Compound 162]
< 5 | > 25 | – | – | O=C(Nc1ncc(Cc2ccc(C(F)(F)F)cc2)s1)c1cn(-c2ccccc2)cn1 [Compound 164]
5 to 25 | 5 to 25 | – | – | O=C(Nc1cncc(Cc2ccccc2)c1)c1ccc(-c2cccc([N+](=O)[O-])c2)o1 [Compound 170]
5 to 25 | 5 to 25 | – | – | O=C(Nc1ncc(Cc2ccc(C(F)(F)F)cc2)s1)c1ccn(-c2cccnc2)n1 [Compound 175]
5 to 25 | 5 to 25 | – | – | O=C(Nc1ccnc(Cc2ccccc2)c1)c1ccc(-c2cccc([N+](=O)[O-])c2)o1 [Compound 177]
5 to 25 | > 25 | – | – | Cc1sc(NC(=O)Cc2ccc3c(c2)OCO3)nc1-c1ccc2c(c1)CCN2C(=O)CN(C)C [Compound 180]
